In US5112864A, “PLA2 inhibitors as antiinflammatories” (G. D. Searle & Co., priority 1991, dated 1992) one finds IC50 data, which are given here for five molecules.

The structures appear in SMILES notation.

In general, IC50 refers to the concentration needed to halve the response being measured.

In this assay the target is T1, Human synovial fluid phospholipase A2 (HSF-PLA2) (Homo sapiens, UniProt P14555).
T1 construct: Human synovial fluid phospholipase A2 was purified approximately 5000 fold; from tissue; host or cells: human synovial fluid
T1 sequence (P14555 21-144): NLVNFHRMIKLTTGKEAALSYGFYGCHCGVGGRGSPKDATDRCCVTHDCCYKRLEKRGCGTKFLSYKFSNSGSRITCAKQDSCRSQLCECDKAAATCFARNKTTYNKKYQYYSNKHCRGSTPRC
Nature of the assay: Human synovial fluid phospholipase A2 (HSF-PLA2) assay, [14C]-oleate-labeled autoclaved E. coli substrate. Format: biochemical. The note with it: purified HSF-PLA2; pH 7.0, 5 mM CaCl2; 5 min pre-incubation; 37° C., 30 minutes; mean. The protocol:
Human synovial fluid phospholipase A2 was purified approximately 5000 fold following the procedures of Franson et al., Lung 160, 275-284 (1982) and Vishwanath et al., Inflammation 12(6), 549-56 (1988). Following purification the enzyme activity was measured by a modified methodology using [^14 C]-oleate-labeled, autoclaved E. coli as the substrate as also shown in the above noted references. The assay was performed in a final volume of 100 μl containing 50 mM HEPES (pH 7.0), 150 mM NaCl, 5mM CaCl2, 7 n mole [^14 C]-oleate-labeled E. coli phospholipid and with or without the compound from one of the examples herein undergoing an assay. The compound or control vehicle was pre-incubated with the PLA2 for 5 minutes followed by addition of the E. coli substrate to initiate the reaction. The reaction was maintained at 37° C. for 30 minutes and then terminated by the addition of 2 ml tetrahydrofuran (THF). The reaction product, [^14 C]-oleic acid, was extracted using a 1 ml Bond Elut-NH2 Solid phase extraction column. The IC50 value for the compound (mean -S.E.) is given in the following Table I and represents the concentration of the indicated compound required to inhibit 50% of the PLA2 activity.
`CCCCCCCCCCCCCC#CC(=O)Cc1cccc(C(=O)OC)c1` [Example 5, methyl 3-(2-oxo-3-heptadecynyl) benzoate] had an IC50 of 6 µM. This lies in the single-digit micromolar range.

`COC(=O)c1cccc(CC(=O)C#CCCCCCCCCCOc2ccccc2)c1` [Example 7, methyl 3-(2-oxo-13-phenoxy-3-tridecynyl)benzoate] yielded a 50% inhibitory concentration (IC50) of 2.75 µM. Against the preceding molecule, the IC50 is about 2.2-fold lower. With `COCCCCCCCCCC#CC(=O)Cc1cccc(C(=O)OC)c1` [Example 9, methyl 3-(2-oxo-13-methoxy-3-tridecynyl)benzoate] the figure was 20.6 µM; with `CCCCCCCCCCCCCC#CC(=O)Cc1ccccc1C(=O)OC` [Example 11, methyl 2-(2-oxo-3heptadecynyl)benzoate], 17.4 µM; with `CCCCCCCCCCCCCC#CC(=O)Cc1ccc(C(=O)OC)cc1` [Example 14, methyl 4-(2-oxo-3heptadecynyl)benzoate], 2.2 µM.
